According to patent publication US4394503A, “Cephalosporin derivatives” (priority 1981, dated 1983):
In brackets after ≈: the same amount, converted by molar mass.

Tests used:
[1] = tested on: S. marcescens A20019; experiment: MIC against selected test organisms (Table 2); assay type: cell-based; conditions: Serratia marcescens, A20019; Gn-II, CET-R; read-out: Minimum Inhibitory Concentration
[2] = tested on: S. pyrogenes; experiment: In vitro activity against species of Streptococcus, Neisseria and Haemophilus (Table 3); assay type: cell-based; conditions: read-out: Geometric Mean of MIC
[3] = tested on: S. pneumoniae; experiment: as above; assay type: cell-based; conditions: 5 strains, read-out: Geometric Mean of MIC
[4] = tested on: N. gonorrhoeae; experiment: as above; assay type: cell-based; conditions: Neisseria gonorrhoeae; 4 strains; read-out: Geometric Mean of MIC
[5] = tested on: N. meningitidus; experiment: as above; assay type: cell-based; conditions: 5 strains; read-out: Geometric Mean of MIC
[6] = tested on: C. difficile A21675; experiment: MIC against selected test organisms (Table 2); assay type: cell-based; conditions: Clostridioides difficile, A21675; Anaerobe, CLDM-R; read-out: Minimum Inhibitory Concentration
[7] = tested on: P. aeruginosa A20717; experiment: MIC against selected test organisms (Table 2); assay type: cell-based; conditions: Pseudomonas aeruginosa, A20717; Gn-III, CET-R; read-out: Minimum Inhibitory Concentration
[8] = tested on: P. mirabilis A9554; experiment: MIC against selected test organisms (Table 2); assay type: cell-based; conditions: Proteus mirabilis, A9554; Gn-Ia, CET-S; read-out: Minimum Inhibitory Concentration
[9] = tested on: B. fragilis A22533; experiment: MIC against selected test organisms (Table 2); assay type: cell-based; conditions: Bacteroides fragilis, A22533; Anaerobe, AMP-R; read-out: Minimum Inhibitory Concentration
[10] = in vivo; conditions: mouse, im
Description: Blood samples were collected from the orbital sinuses into heparinized capillary tubes and assayed by the paper disc-agar diffusion method using E. coli as the test organism. The half-life values and areas under the curve were determined.

[11] = tested on: Cephalothin-resistant E. coli and Kl. pneumoniae (Gn-Ib); experiment: In vitro antibacterial activity, two-fold agar dilution, Mueller-Hinton agar (Table 1), group Gn-Ib; assay type: cell-based, E. coli (3) and Kl. pneumoniae (3); conditions: Escherichia coli, read-out: Geometric Mean of MIC
[12] = tested on: S. aureus Smith; experiment: Therapeutic efficacy in experimentally infected mice (Table 5); assay type: in vivo; conditions: Staphylococcus aureus, im, 120 h; i.m., immediately after intraperitoneal challenge, 5 days observation; read-out: PD50 (median protective dose)
Description: (§1) The test compounds were administered intramuscularly immediately after the bacterial challenge.

[13] = tested on: E. coli Juhl; experiment: as above; assay type: in vivo; conditions: Escherichia coli, im, 120 h; i.m., immediately after intraperitoneal challenge, 5 days observation; read-out: PD50 (median protective dose)
Description: as §1

[14] = tested on: E. cloacae A9656; experiment: as above; assay type: in vivo; conditions: Enterobacter cloacae, A9656, im, 120 h; i.m., immediately after intraperitoneal challenge, 5 days observation; read-out: PD50 (median protective dose)
Description: as §1

[15] = tested on: Pr. mirabilis A9900; experiment: as above; assay type: in vivo; conditions: Proteus mirabilis, A9900, im, 120 h; i.m., immediately after intraperitoneal challenge, 5 days observation; read-out: PD50 (median protective dose)
Description: as §1

[16] = tested on: S. aureus BX-1633; experiment: as above; assay type: in vivo; conditions: Staphylococcus aureus, BX1633, im, 120 h; i.m., immediately after intraperitoneal challenge, 5 days observation; read-out: PD50 (median protective dose)
Description: as §1

[17] = tested on: P. aeruginosa A9843; experiment: as above; assay type: in vivo; conditions: Pseudomonas aeruginosa, A9843, im, 120 h; i.m., immediately after intraperitoneal challenge, 5 days observation; read-out: PD50 (median protective dose)
Description: as §1

[18] = tested on: P. acnes A21933; experiment: MIC against selected test organisms (Table 2); assay type: cell-based; conditions: Cutibacterium acnes, A21933; Anaerobe, CLDM-R; read-out: Minimum Inhibitory Concentration
[19] = tested on: E. coli A15148; experiment: MIC against selected test organisms (Table 2); assay type: cell-based; conditions: Escherichia coli, A15148; Gn-Ib, CET-R; read-out: Minimum Inhibitory Concentration
[20] = tested on: B. fragilis A20928-1; experiment: MIC against selected test organisms (Table 2); assay type: cell-based; conditions: Bacteroides fragilis, A209281; Anaerobe, CET-S; read-out: Minimum Inhibitory Concentration
[21] = tested on: H. influenzae(AMP-S); experiment: In vitro activity against species of Streptococcus, Neisseria and Haemophilus (Table 3); assay type: cell-based; conditions: Haemophilus influenzae; AMP-S, 7 strains; read-out: Geometric Mean of MIC
[22] = tested on: B. fragilis A22693; experiment: MIC against selected test organisms (Table 2); assay type: cell-based; conditions: Bacteroides fragilis, A22693, read-out: Minimum Inhibitory Concentration
[23] = tested on: P. aeruginosa A15150; experiment: MIC against selected test organisms (Table 2); assay type: cell-based; conditions: Pseudomonas aeruginosa, A15150; Gn-III, CET-R; read-out: Minimum Inhibitory Concentration
[24] = tested on: Cephalothin-sensitive E. coli, Kl. pneumoniae and Pr. mirabilis (Gn-Ia); experiment: In vitro antibacterial activity, two-fold agar dilution, Mueller-Hinton agar (Table 1), group Gn-Ia; assay type: cell-based; conditions: read-out: Geometric Mean of MIC
[25] = tested on: Penicillin-resistant S. aureus (Gp-Ib); experiment: In vitro antibacterial activity, two-fold agar dilution, Mueller-Hinton agar (Table 1), group Gp-Ib; assay type: cell-based; conditions: Staphylococcus aureus; read-out: Geometric Mean of MIC
[26] = tested on: B. fragilis A21900; experiment: MIC against selected test organisms (Table 2); assay type: cell-based; conditions: Bacteroides fragilis, A21900; Anaerobe, CET-S; read-out: Minimum Inhibitory Concentration
[27] = tested on: K. pneumoniae A 9867; experiment: MIC against selected test organisms (Table 2); assay type: cell-based; conditions: Klebsiella pneumoniae, A9867; Gn-Ib, CET-R; read-out: Minimum Inhibitory Concentration
[28] = tested on: Pr. morganii, Ent. cloacae and Ser. marcescens (Gn-II); experiment: In vitro antibacterial activity, two-fold agar dilution, Mueller-Hinton agar (Table 1), group Gn-II; assay type: cell-based, Pr. morganii (1), Ent. cloacae (2) and Ser. marcescens (2); conditions: read-out: Geometric Mean of MIC
[29] = tested on: P. morganii A9553; experiment: MIC against selected test organisms (Table 2); assay type: cell-based; conditions: Morganella morganii, A9553; Gn-II, CET-R; read-out: Minimum Inhibitory Concentration

`CSc1cc[n+](CC2=C(C(=O)[O-])N3C(=O)C(NC(=O)/C(=N\OC(C)(C)C(=O)O)c4csc(N)n4)C3SC2)cc1` (centres unmarked) [Example 2, 7-[(Z)-2-(2-Aminothiazol-4-yl)-2-(2-carboxyprop-2-oxyimino)-acetamido]-3-[(4-methylthiopyridinium)methyl]-3-cephem-4-carboxylate] showed an MIC [1] of 0.4 µg/mL (≈ 0.675 µM), an MIC [2] of 0.2 µg/mL (≈ 0.337 µM) and an MIC [3] of 0.2 µg/mL (≈ 0.337 µM). The MIC [4] was 0.013 µg/mL (≈ 0.0219 µM), the MIC [5] was 0.013 µg/mL (≈ 0.0219 µM) and the MIC [6] was greater than 100 µg/mL. It also gave an MIC [7] of 6.3 µg/mL (≈ 10.6 µM), an MIC [8] of 0.05 µg/mL (≈ 0.0844 µM) and an MIC [9] greater than 100 µg/mL. For the same compound, the AUC ([10]; 10 mg/kg) was 3700 ng·h/mL, the concentration at 10 min ([10]; 10 mg/kg) was 4500 ng/mL and the concentration at 20 min ([10]; 10 mg/kg) was 5100 ng/mL. The concentration at 0.5 h ([10]; 10 mg/kg) was 3800 ng/mL, the concentration at 40 min ([10]; 10 mg/kg) was 3200 ng/mL and the concentration at 1 h ([10]; 10 mg/kg) was 1100 ng/mL. The concentration at 1.5 h ([10]; 10 mg/kg) was 450 ng/mL, the half-life ([10]; 10 mg/kg) was 18 min and the AUC ([10]; 20 mg/kg) was 10000 ng·h/mL. It also gave a concentration at 10 min ([10]; 20 mg/kg) of 12000 ng/mL, a concentration at 20 min ([10]; 20 mg/kg) of 12000 ng/mL and a concentration at 0.5 h ([10]; 20 mg/kg) of 9300 ng/mL. For the same compound, the concentration at 40 min ([10]; 20 mg/kg) was 8700 ng/mL, the concentration at 1 h ([10]; 20 mg/kg) was 4000 ng/mL and the concentration at 1.5 h ([10]; 20 mg/kg) was 1200 ng/mL. It also gave a half-life ([10]; 20 mg/kg) of 16 min, an MIC [11] of 0.89 µg/mL (≈ 1.5 µM) and an ED50 [12] of 5 mg/kg. The ED50 [13] was 0.16 mg/kg, the ED50 [14] was 3.5 mg/kg and the ED50 [15] was 0.63 mg/kg. The ED50 [16] was 15 mg/kg, the ED50 [17] was 12 mg/kg and the MIC [18] was 1.6 µg/mL (≈ 2.7 µM). The MIC [19] was 0.2 µg/mL (≈ 0.337 µM), the MIC [20] was 3.1 µg/mL (≈ 5.23 µM) and the MIC [21] was 0.1 µg/mL (≈ 0.169 µM). It also gave an MIC [22] of 12.5 µg/mL (≈ 21.1 µM), an MIC [23] of 1.6 µg/mL (≈ 2.7 µM) and an MIC [24] of 0.066 µg/mL (≈ 0.111 µM). It also gave an MIC [25] of 6.3 µg/mL (≈ 10.6 µM), an MIC [26] of 6.3 µg/mL (≈ 10.6 µM) and an MIC [27] of 3.1 µg/mL (≈ 5.23 µM). It also gave an MIC [28] of 1.5 µg/mL (≈ 2.53 µM) and an MIC [29] of 1.6 µg/mL (≈ 2.7 µM).
